Source: paper PMC12549899 (Nature Communications, 2025)
pIC50: −log10 of the molar value. Values joined by “and” are separate entries in the source; they are usually repeats but may differ in a detail not shown here. Equal entries are not always repeated.

Target: T1, DrOTOP1 G130W (Danio rerio, UniProt Q7ZWK8, G130W)
T1 construct: A previously generated codon-optimized full-length DrOTOP1[8]; (UniProt: Q7ZWK8) construct; expressed in transfected cells; host or cells: HEK-293 (CRL-1573, ATCC)
T1 sequence (Q7ZWK8 1-586 G130W): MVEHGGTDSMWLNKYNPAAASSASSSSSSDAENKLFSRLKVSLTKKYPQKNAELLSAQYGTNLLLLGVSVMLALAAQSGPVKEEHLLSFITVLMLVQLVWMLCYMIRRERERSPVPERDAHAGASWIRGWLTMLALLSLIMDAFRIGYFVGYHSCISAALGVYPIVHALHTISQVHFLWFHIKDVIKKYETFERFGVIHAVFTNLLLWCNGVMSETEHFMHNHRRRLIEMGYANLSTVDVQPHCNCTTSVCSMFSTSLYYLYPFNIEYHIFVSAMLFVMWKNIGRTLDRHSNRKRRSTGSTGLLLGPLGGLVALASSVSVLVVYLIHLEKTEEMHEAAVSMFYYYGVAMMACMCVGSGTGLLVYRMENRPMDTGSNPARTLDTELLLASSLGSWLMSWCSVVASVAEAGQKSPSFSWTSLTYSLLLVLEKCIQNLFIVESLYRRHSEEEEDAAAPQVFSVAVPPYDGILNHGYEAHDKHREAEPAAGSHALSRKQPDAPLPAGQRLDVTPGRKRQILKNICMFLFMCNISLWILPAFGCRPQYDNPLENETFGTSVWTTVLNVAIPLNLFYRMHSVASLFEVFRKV
Assay: Whole-cell patch-clamp, inhibition of acid-evoked currents, DrOTOP1 G130W (outer site)
Format: cell-based, zebrafish (Danio rerio)
Source text: To functionally test the significance of the two binding sites identified by cryo-EM, we generated point mutations of DrOTOP1 using the binding poses and conformational changes observed in DrOTOP1_C2.2 to guide our mutations. As per the binding pose that best fits our cryo-EM density, C2.2 forms the following interactions in the outer site: hydrophobic packing against many non-polar residues W126, G130, M133, L134, F271, F570, and M573, and π-stacking with W532 (Fig. 5A). In addition, C2.2 could potentially form H-bonds with E267, if the sidechain is protonated or a water bridge is present, and with H574 if it moves closer (Fig. 5A). Likewise, C2.36 presents a heterocyclic nitrogen that can potentially form a H-bond with E267, similarly, provided a protonation or water bridge is present (Fig. 5B). In addition, C2.36 forms a T-shaped π-stacking interaction with H574, whose sidechain has rotated 90 degrees (compared to DrOTOP1_apo), presumably to accommodate the interaction (Fig. 5B). Considering other inhibitors discovered from the second round of screening, many contain functional groups like the carbonyl groups of Group 1 molecules and the heterocyclic nitrogen atoms of Group 2 molecules (Supplementary Fig. 3E), that can potentially form similar H-bonds with E267 as C2.2 and C2.36, assuming the binding modes are similar. In the central site, C2.2 binds with the following interactions: hydrophobic packing with residues V201, F271, A274, V278, and A388, π-stacking with F277, and H-bonding with E384 (Fig. 5C).
Each non-aromatic residue was mutated to tryptophan, which was expected to cause steric occlusion. […] This seemed appropriate given the small number of H-bonds in these pockets, the ambiguity of how the inhibitors fit the density, and the prevalence of hydrophobic packing interactions (Fig. 5A–C).
HEK-293 cells (CRL-1573, ATCC) were cultured in DMEM (Thermofisher 11995073) containing 10% fetal bovine serum (Life Technology 16000044) and Penicillin-Streptomycin (100 I.U./mL) and (100 µg/mL), respectively. Cells were transfected with WT DrOTOP1 or mutant DrOTOP1 channels in 35 mm petri dishes, with ~ 500 ng DNA and 2 μL TransIT-LT1 transfection reagent (Mirus Bio Corporation, Cat # MIR2300) following the manufacturer’s protocol. All constructs were subcloned into a pcDNA3.1 vector that adds an N-terminal fusion tag consisting of an octahistidine tag followed by eGFP, a Gly-Thr-Gly-Thr linker and a 3C protease cleavage site ([…]) followed by WT DrOTOP1, WT mOTOP1, WT hOTOP1, or mutated DrOTOP1. Point mutations were generated via In-Fusion Cloning (Takara) using single-stranded DNA primers generated through IDT and sequence confirmed by Sanger sequencing (GeneWiz).
Whole-cell patch-clamp recording was performed as previously described[6],[22],[25]. Recordings were made with an Axopatch 200B amplifier, digitized with a Digidata 1322a 16-bit data acquisition system, acquired with pClamp 8.2 and analyzed with Clampfit 10 (Molecular Devices). Recordings were sampled at 5 kHz and filtered at 1 kHz. Patch Pipettes with resistance of […] were fabricated from borosilicate glass, and only recordings with a giga-Ohm seal were used in analysis. Membrane potential was held at −80 mV for the duration of recordings. At the beginning of recordings and between, cells were washed with Tyrode’s solution (see below). Once a giga-Ohm seal was reached, cells were lifted and placed in front of microcapillary tubes controlled by a Fast-Step perfusion system (Warner Instruments) so that extracellular solutions could be rapidly exchanged during each experiment.
Standard Tyrode’s solution consisted of 145 mM NaCl, 5 mM KCl, MgCl2, 2 mM CaCl2, 20 mM D-Glucose, and 10 mM HEPES (for pH 7.4). All other extracellular patch-clamp solutions contained 160 mM NMDG-Cl, 2 mM CaCl2, and the following buffers: 10 mM HEPES (for pH 7.4), 10 mM MES (for pH 6.5-5.5), 10 mM CHES for pH 10, and 10 mM HomoPIPES for (pH 5.0). pH adjusted with HCl. […]

SMILES | inhibition at 30 µM (30 µM, DrOTOP1 G130W, single cells) [%] | inhibition at 100 µM (DrOTOP1 G130W, single cells) [%] | Hill coefficient (DrOTOP1 G130W) | pIC50 (DrOTOP1 G130W, pH 5.5) | Mean, Fig 5N (G130W + C2.2, n=5) | Disruption of inhibitory activity by site-directed mutagenesis of outer site residues (outer site mutants compared with WT) [fold]
C=C(C)COc1ccccc1NC(=O)c1nc[nH]c1C [C2.2] | 15.3 | 42.4 | 1.123 | 3.88 and 3.86 | 15.24 | ≤ 20
O=C(/C(=N\O)c1ccccc1)c1ccccc1 [C11, benzil monoxime] |  | 62.7 |  |  |  | 
